Assay results from patent publication US20130287705A1, “METHOD OF TREATING MUCOSAL INFLAMMATION” (MCMASTER UNIVERSITY, priority 2010, published 2013).

Columns and labels:
DSS and DNBS colitis = conditions: PCPA treated mice after induction of colitis; cited from earlier work
DSS-induced colitis = DSS-induced colitis in mice treated with 5-HT7 antagonist; format: in vivo, C57BL/6 mice
dendritic cells = dendritic cells from TPH1-/- mice in DSS-colitis, stimulation with 5-HT; cited from earlier work
splenic dendritic cells = assay: Ex vivo culture of CD11c positive splenic DCs from bone-marrow reconstituted mice post-DSS; format: cell-based; conditions: LPS and serotonin vs LPS only
Procedure: Mice were sacrificed by cervical dislocation and spleens were excised and placed in Spleen Dissociation Medium (STEMCELL Technologies) and incubated for 30 min at room temperature. They were then strained through a 70-μm nylon mesh filter (BD Falcon) and washed with PBS supplemented with 2% fetal bovine serum (FBS) and 1 mmol/L EDTA. Splenic DCs were isolated using a CD11c^+ isolation kit (EasySep®, STEMCELL Technologies) according to the manufacturer's guidelines.
DCs isolated using CD11c positive selection were incubated at 1×10^6 cells per mL for 24 hours at 37° C. with or without 100 ng/mL LPS (Sigma-Aldrich) in RPMI 1640 supplemented with 10% FBS, 100 U/mL penicillin, 100 μg/mL streptomycin, and 50 μM 2-mercaptoethanol (Invitrogen Life Technologies). Supernatents were collected after 24 hours and analyzed for cytokine levels using ELISA kits for murine IL-12p40, IL-1β, and IL-6 (Quantikine Murine; R&D Systems, Minneapolis, Minn., USA).
6-8 week old male recipient C57BL/6 mice (Taconic) were irradiated with two doses of 5.5 Gy 48 hours apart administered via a ^137Cs γ-irradiation source (Gamma Cell 40; Nordian, Kanata, ON, Canada). Bone marrow cells (no fewer than 5×10^4) were harvested from femurs and tibiae of donor mice (5-HT7^+/+) and 5-HT7^−/− and given via tail vein injection to recipient mice within two hours of the second irradiation exposure. […]

Question: For NC(Cc1ccc(Cl)cc1)C(=O)O (racemic) [PCPA, para-chloro-D, L-phenylalanine], which onset of colitis (DSS and DNBS colitis) is on record?
Answer: Its onset of colitis is “Delayed onset”.

Question: And the pro-inflammatory cytokine production (DSS and DNBS colitis)?
Answer: Its pro-inflammatory cytokine production is “down-regulation”.

Question: What about the severity of colitis (DSS and DNBS colitis) of the same compound?
Answer: The severity of colitis was “decreased severity”.

Question: What does the source list for CC1CCN(CC[C@H]2CCCN2S(=O)(=O)c2cccc(O)c2)CC1.Cl [SB-269970, (2R)-1-[(3-Hydroxyphenyl)sulfonyl]-2-[2-(4-methyl-1-piperidinyl)ethyl]pyrrolidinehydrochloride]?
Answer: colitis severity (macroscopic damage) (DSS-induced colitis; 40 mg/kg i.p., day 5 post-DSS induction, compared to controls): significantly lower; histological scores (DSS-induced colitis; 40 mg/kg i.p., day 5 post-DSS induction, compared to controls, FIG. 1C): significantly less severe; myeloperoxidase (MPO) activity in colonic tissue (DSS-induced colitis; 40 mg/kg i.p., post-DSS, FIG. 2A): significantly lower; production of IL-1β in colonic tissue (DSS-induced colitis; 40 mg/kg i.p., post-DSS, FIG. 2B): lower production; production of TNF-α in colonic tissue (DSS-induced colitis; 40 mg/kg i.p., post-DSS, FIG. 2C): lower production; production of IL-6 in colonic tissue (DSS-induced colitis; 40 mg/kg i.p., post-DSS, FIG. 2D): lower production; Clinical disease activity scores (fecal blood and consistency, and weight loss) (DSS-induced colitis; 40 mg/kg intraperitoneally, days 4 and 5 post-DSS administration, vs vehicle (saline), FIG. 1A): significantly lower

Question: Which IL-12 production (dendritic cells) does the source give for NCCc1c[nH]c2ccc(O)cc12 [serotonin, 5-hydroxytryptamine] here?
Answer: Its IL-12 production is “restored”.

Question: What about the IL-1β production (splenic dendritic cells; DCs from mice reconstituted with wild-type BMC, FIG. 9) of the same compound?
Answer: The IL-1β production was “significantly up-regulated”.

Question: What about the “increase in IL-1β production” value (splenic dendritic cells; DCs from spleens of transgenic mice (5-HT7-/- BMC)) of the same compound?
Answer: The value was “not seen”.
